The values below come from patent US8314253B2, “Bridged tetrahydronaphthalene derivatives” (Actelion Pharmaceuticals Ltd., priority 2008, dated 2012).

Molecules are shown by their SMILES.

One assay has as its system isolated mouse hearts. Nature of the assay: Effect on isolated hearts according to the Langendorff method (Lgdff). How it is done: The compounds were tested for their potential to reduce blood pressure and their effect on the contractility of the heart muscle. EC50 values on isolated mouse hearts were determined according to Literature (Doring H J., The isolated perfused heart according to Langendorff technique—function—application, Physiol. Bohemoslov. 1990, 39(6), 481-504; Kligfield P, Homer H, Brachfeld N., A model of graded ischemia in the isolated perfused rat heart, J. Appl. Physiol. 1976 June, 40(6), 1004-8).
15 example compounds have been measured using the procedure described above for the Langendorff experiment.

In assay [1] the test system is human Cav3.1 Cav3.2 or Cav3.3 channel. Nature of the assay: In vitro assay T channel (FLIPR, Ca2+-induced fluorescence). Format: cell-based. Particulars: HEK293 cells expressing human Cav3.1 Cav3.2 or Cav3.3; 10 mM Ca2+; determined up to 10 μM; read-out: T channel antagonistic activity IC50. How it is done:
Human embryonic kidney (HEK293) cells expressing the human Cav3.1 Cav3.2 or Cav3.3 channel, respectively, are grown in culture medium (DMEM containing 10% heat-inactivated fetal calf serum (FCS), 100 U/ml penicillin, 100 μg/ml streptomycin and 1 mg/ml G418). The cells are seeded at 20.000 cells/well into 384-well black clear bottom sterile plates (poly-L-lysine-coated, Becton Dickinson). The seeded plates are incubated overnight at 37° C. in 5% CO2. The Ca^2+ solution is prepared as 100 mM stock solution in 100 mM tetraethylammoniumchloride (TEA-chloride), 50 mM HEPES, 2.5 mM CaCl2, 5 mM KCl, 1 mM MgCl2, adjusted to pH 7.2 with TEA-hydroxide, for use in the assay at a final concentration of 10 mM. […] Fluorescence is measured for each well at 2 second intervals for 8 minutes, and the area under the curve of each fluorescence peak is compared to the area of the fluorescence peak induced by 10 mM Ca^2+ with vehicle in place of antagonist.

Usually EC50 stands for the concentration giving half of the maximal effect. Low readings indicate greater potency, high ones weaker potency. Usually IC50 stands for the point on the concentration scale where inhibition reaches its midpoint.

`CC(C)C(=O)O[C@@]1(CCN(C)CCCc2nc3ccccc3[nH]2)C[C@H]2CC[C@@H]1c1ccccc12` (relative stereo) [Example 1B, rac-Isobutyric acid (1R*,8R*,9R*)-9-(2-{[3-(1H-benzoimidazol-2-yl)-propyl]-methyl-amino}-ethyl)-tricyclo[6.2.2.0^2,7]dodeca-2,4,6-trien-9-yl ester]: in the assay on isolated mouse hearts, the EC50 is 42 nM. In addition, in assay [1], the IC50 is 2070 nM.
On to `CC(C)C(=O)O[C@@]1(CCN(C)CCCc2nc3ccccc3[nH]2)C[C@H]2CC[C@@H]1c1cc(F)c(F)cc12` (relative stereo) [Example 9A, rac-Isobutyric acid (1R*,8R*,9R*)-9-(2-{[3-(1H-benzoimidazol-2-yl)-propyl]-methyl-amino}-ethyl)-4,5-difluoro-tricyclo[6.2.2.0^2,7]dodeca-2,4,6-trien-9-yl ester], for which, in the assay on isolated mouse hearts, a half-maximal effect (EC50) was put at 30 nM. Further, the 50% inhibitory concentration (IC50) in assay [1] worked out at 1400 nM.
Regarding `COc1ccc(C)c2[nH]c(CCCN(C)CCC3(O)CC4CCCC3c3ccccc34)nc12` (single isomer, unassigned) [Example 14, (1S,8S,12S)-12-(2-{[3-(4-Methoxy-7-methyl-1H-benzoimidazol-2-yl)-propyl]-methyl-amino}-ethyl)-tricyclo[6.3.2.0^2,7]trideca-2,4,6-trien-12-ol or (1R,8R,12R)-12-(2-{[3-(4-methoxy-7-methyl-1H-benzoimidazol-2-yl)-propyl]-methyl-amino}-ethyl)-tricyclo[6.3.2.0^2,7]trideca-2,4,6-trien-12-ol], in assay [1], the IC50 was 736 nM.
Same read-out and setting: as for `CC(C)C(=O)OC1(CCN(C)CCCc2nc3ccccc3[nH]2)CC2CCC1c1ccccc12` [Example 2A, Isobutyric acid (1S,8S,9S)-9-(2-{[3-(1H-benzoimidazol-2-yl)-propyl]-methyl-amino}-ethyl)-tricyclo[6.2.2.0^2,7]dodeca-2,4,6-trien-9-yl ester or isobutyric acid (1R,8R,9R)-9-(2-{[3-(1H-benzoimidazol-2-yl)-propyl]-methyl-amino}-ethyl)-tricyclo[6.2.2.0^2,7]dodeca-2,4,6-trien-9-yl ester], the figure is 1790 nM.
On to `CC(C)C(=O)OC1(CCN(C)CCCc2nc3ccccc3[nH]2)CC2CCCC1c1ccccc12` [Example 11A, Isobutyric acid (1S,8S,12S)-12-(2-{[3-(1H-Benzoimidazol-2-yl)-propyl]-methyl-amino}-ethyl)-tricyclo[6.3.2.0^2,7]trideca-2,4,6-trien-12-yl ester or isobutyric acid (1R,8R,12R)-12-(2-{[3-(1H-benzoimidazol-2-yl)-propyl]-methyl-amino}-ethyl)-tricyclo[6.3.2.0^2,7]trideca-2,4,6-trien-12-yl ester], for which the EC50 with isolated mouse hearts was determined as 22 nM. For the same compound, the IC50 in assay [1] is 1050 nM.
Turning to `CC(C)C(=O)OC1(CCN(C)CCCc2nc3ccccc3[nH]2)CC2CCCC1c1ccccc12` [Example 12A, Isobutyric acid (1S,8S,12S)-12-(2-{[3-(1H-Benzoimidazol-2-yl)-propyl]-methyl-amino}-ethyl)-tricyclo[6.3.2.0^2,7]trideca-2,4,6-trien-12-yl ester or isobutyric acid (1R,8R,12R)-12-(2-{[3-(1H-benzoimidazol-2-yl)-propyl]-methyl-amino}-ethyl)-tricyclo[6.3.2.0^2,7]trideca-2,4,6-trien-12-yl ester], the IC50 in assay [1] worked out at 783 nM.
The same measure, in the same setting: the same measure for `COc1cccc2[nH]c(CCCN(C)CCC3(OC(=O)C(C)C)CC4CCCC3c3ccccc34)nc12` [Example 13A, Isobutyric acid (1S,8S,12S)-12-(2-{[3-(4-Methoxy-1H-benzoimidazol-2-yl)-propyl]-methyl-amino}-ethyl)-tricyclo[6.3.2.0^2,7]trideca-2,4,6-trien-12-yl ester or isobutyric acid (1R,8R,12R)-12-(2-{[3-(4-methoxy-1H-benzoimidazol-2-yl)-propyl]-methyl-amino}-ethyl)-tricyclo[6.3.2.0^2,7]trideca-2,4,6-trien-12-yl ester]: 544 nM.
In the assay on isolated mouse hearts, `COc1cccc2[nH]c(CCCN(C)CC[C@@]3(OC(=O)CC(F)(F)F)C[C@@H]4CCC[C@H]3c3ccccc34)nc12` [Example 13B, 3,3,3-Trifluoro-propionic acid (1S,8S,12S)-12-(2-{[3-(4-methoxy-1H-benzoimidazol-2-yl)-propyl]-methyl-amino}-ethyl)-tricyclo[6.3.2.02,7]trideca-2,4,6-trien-12-yl ester or 3,3,3-trifluoro-propionic acid (1R,8R,12R)-12-(2-{[3-(4-methoxy-1H-benzoimidazol-2-yl)-propyl]-methyl-amino}-ethyl)-tricyclo[6.3.2.02,7]trideca-2,4,6-trien-12-yl ester] gave a concentration giving a half-maximal response (EC50) of 6 nM. Also, in assay [1], the IC50 came out at 653 nM.
`COc1ccc(C)c2[nH]c(CCCN(C)CCC3(OC(=O)C(C)C)CC4CCCC3c3ccccc34)nc12` [Example 14A, Isobutyric acid (1S,8S,12S)-12-(2-{[3-(4-Methoxy-7-methyl-1H-benzoimidazol-2-yl)-propyl]-methyl-amino}-ethyl)-tricyclo[6.3.2.0^2,7]trideca-2,4,6-trien-12-yl ester or isobutyric acid (1R,8R,12R)-12-(2-{[3-(4-methoxy-7-methyl-1H-benzoimidazol-2-yl)-propyl]-methyl-amino}-ethyl)-tricyclo[6.3.2.0^2,7]trideca-2,4,6-trien-12-yl ester]: the IC50 in assay [1] is 191 nM.
In the case of `COc1ccc(C)c2[nH]c(CCCN(C)CC[C@@]3(OC(=O)CC(F)(F)F)C[C@@H]4CCC[C@H]3c3ccccc34)nc12` [Example 14B, 3,3,3-Trifluoro-propionic acid (1S,8S,12S)-12-(2-{[3-(4-methoxy-7-methyl-1H-benzoimidazol-2-yl)-propyl]-methyl-amino}-ethyl)-tricyclo[6.3.2.0^2,7]trideca-2,4,6-trien-12-yl ester or 3,3,3-trifluoro-propionic acid (1R,8R,12R)-12-(2-{[3-(4-methoxy-7-methyl-1H-benzoimidazol-2-yl)-propyl]-methyl-amino}-ethyl)-tricyclo[6.3.2.0^2,7]trideca-2,4,6-trien-12-yl ester], the IC50 in assay [1] came to 514 nM.
